The IC50 is the concentration that inhibits the measured activity by half. A high value points to weaker potency.

The values that follow come from patent US5663181A, “Naphthyridine derivatives, their methods of preparation and pharmaceutical compositions in which they are present, useful especially as antiproliferative drugs” (Laboratoires UPSA, priority 1993, dated 1997).

The subject of the experiment is balb c 3T3 fibroblasts. The experiment in a line: Inhibition of PDGF-stimulated balb c 3T3 fibroblast proliferation (3H-thymidine incorporation). The format is cell-based. The settings on record: Mus musculus, BALB/c3T3; ^3 H-thymidine incorporation stimulated by PDGF in balb c 3T3 fibroblasts. As for the experimental part: Measurement of inhibition of the balb c 3T3 fibroblast proliferation induced by a growth factor […]
Inhibition of the cell proliferation induced by a growth factor (for example PDGF) is evaluated by measuring the ^3 H-thymidine incorporation into balb c 3T3 fibroblasts.
The balb c 3T3 fibroblasts are cultivated at 37° C. with 5% of CO2 up to the point of subconfluence and are then placed for 24 hours under rest conditions in a serum-impoverished medium. They are subsequently pretreated for one hour with the test molecule and then stimulated for 24 hours with a growth factor (for example PDGF). ^3 H-Thymidine is incorporated over the last 2 hours. All these steps are performed at 37° C. with 5% of CO2.
The reaction is terminated by sucking off the reaction medium, detaching the cells and then filtering the lyzed cells through glass fiber filters.
The results are expressed as the percentage inhibition of the stimulation of ^3 H-thymidine incorporation due to the action of the growth factor.
(In general: Uptake of a labelled nucleoside into DNA is a usual measure of proliferation.)

Take `N#CC(=Cc1cc2cccnc2n(-c2cc(Cl)cc(Cl)c2)c1=O)c1ccncc1` [Example 81, 3-[1-(3,5-dichlorophenyl)-1,2-dihydro-2-oxo-1,8-naphthyridin-3-yl]-2-(4-pyridyl)prop-2-enenitrile]: the IC50 was 200 nM. With `N#CC(=Cc1cc2cccnc2n(-c2cc(Cl)cc(Cl)c2)c1=O)c1cccnc1` [Example 78, 3-[1-(3,5-dichlorophenyl)-1,2-dihydro-2-oxo-1,8-naphthyridin-3-yl]-2-(3-pyridyl)prop-2-enenitrile], the IC50 is 300 nM.
